Reference: US12077503B2, “Substituted cyclic amides and their use as herbicides” (FMC CORPORATION, priority 2015, dated 2024)

Legend:
Format in all cases: in vivo
[1] = system: Kochia (Kochia scoparia); assay: Test A preemergence; conditions: Bassia scoparia, pre-emergence, 240 h, Preemergence
Summary of the method: (§1)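 Seeds sprayed preemergence with a directed soil spray, or plants at 2 to 10 cm height and one- to two-leaf stage sprayed postemergence, with test chemicals in a non-phytotoxic solvent mixture containing surfactant, in loam soil–sand blend. Injury rated visually against untreated controls after about 10 d in greenhouse, 0 (no effect) to 100 (complete control).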

[2] = system: barnyardgrass (Echinochloa crus-galli); assay: Test A preemergence; conditions: Echinochloa crus-galli, pre-emergence, 240 h, Preemergence
Summary of the method: as §1

[3] = system: giant foxtail (Setaria faberii); assay: Test A preemergence; conditions: Setaria faberi, pre-emergence, 240 h, Preemergence
Summary of the method: as §1

[4] = system: pigweed (Amaranthus retroflexus); assay: Test A preemergence; conditions: Amaranthus retroflexus, pre-emergence, 240 h, Preemergence
[5] = system: ragweed (common ragweed, Ambrosia elatior); assay: Test A preemergence; conditions: Ambrosia artemisiifolia, pre-emergence, 240 h, Preemergence
Summary of the method: as §1

[6] = system: ryegrass, Italian (Italian ryegrass, Lolium multiflorum); assay: Test A preemergence; conditions: Lolium multiflorum, pre-emergence, 240 h, Preemergence
Summary of the method: as §1

[7] = system: Galium (catchweed bedstraw, Galium aparine); assay: Test A postemergence; conditions: Galium, post-emergence, 240 h, Postemergence, read-out: Galium plant response rating (0 to 100 scale)
Summary of the method: as §1

[8] = system: Kochia (Kochia scoparia); assay: Test A postemergence; conditions: Bassia scoparia, post-emergence, 240 h, Postemergence, read-out: Kochia plant response rating (0 to 100 scale)
Summary of the method: as §1

[9] = system: barnyardgrass (Echinochloa crus-galli); assay: Test A postemergence; conditions: Echinochloa crus-galli, post-emergence, 240 h, Postemergence
Summary of the method: as §1

[10] = system: blackgrass (Alopecurus myosuroides); assay: Test A postemergence; conditions: Alopecurus myosuroides, post-emergence, 240 h, Postemergence, read-out: Blackgrass plant response rating (0 to 100 scale)
Summary of the method: as §1

[11] = system: corn (Zea mays); assay: Test A postemergence; conditions: Zea mays, post-emergence, 240 h, Postemergence, read-out: Corn plant response rating (0 to 100 scale)
Summary of the method: as §1

[12] = system: giant foxtail (Setaria faberii); assay: Test A postemergence; conditions: Setaria faberi, post-emergence, 240 h, Postemergence, read-out: Foxtail, Giant plant response rating (0 to 100 scale)
Summary of the method: as §1

[13] = system: pigweed (Amaranthus retroflexus); assay: Test A postemergence; conditions: Amaranthus retroflexus, post-emergence, 240 h, Postemergence, read-out: Pigweed plant response rating (0 to 100 scale)
Summary of the method: as §1

[14] = system: ragweed (common ragweed, Ambrosia elatior); assay: Test A postemergence; conditions: Ambrosia artemisiifolia, post-emergence, 240 h, Postemergence, read-out: Ragweed plant response rating (0 to 100 scale)
Summary of the method: as §1

[15] = system: ryegrass, Italian (Italian ryegrass, Lolium multiflorum); assay: Test A postemergence; conditions: Lolium multiflorum, post-emergence, 240 h, Postemergence, read-out: Ryegrass, Italian plant response rating (0 to 100 scale)
Summary of the method: as §1

[16] = system: wheat (Triticum aestivum); assay: Test A postemergence; conditions: Triticum aestivum, post-emergence, 240 h, Postemergence, read-out: Wheat plant response rating (0 to 100 scale)
Summary of the method: as §1

[17] = system: barnyardgrass (Echinochloa crus-galli); assay: Test B flooded paddy test; conditions: Echinochloa crus-galli, 360 h, Flood, 250 g ai/ha; visually evaluated after 13 to 15 d; read-out: Plant response rating, Barnyardgrass (0 to 100 scale where 0 is no effect and 100 is complete control)
Summary of the method: (§2)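 Flooding to 3 cm over soil accompanied treatment, which consisted of adding compound to the standing water around 2-leaf plants; depth was then maintained. Visual assessment versus controls followed at 13 to 15 d (scale 0–100, 0 meaning no effect).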

[18] = system: ducksalad (Heteranthera limosa); assay: Test B flooded paddy test; conditions: Heteranthera limosa, 360 h, Flood, 250 g ai/ha; visually evaluated after 13 to 15 d; read-out: Plant response rating, Ducksalad (0 to 100 scale where 0 is no effect and 100 is complete control)
Summary of the method: as §2

[19] = system: rice (Oryra sativa); assay: Test B flooded paddy test; conditions: Oryza sativa, 360 h, Flood, 250 g ai/ha; visually evaluated after 13 to 15 d; read-out: Plant response rating, Rice (0 to 100 scale where 0 is no effect and 100 is complete control)
Summary of the method: as §2

[20] = system: sedge, umbrella (small-flower umbrella sedge, Cyperus difformis); assay: Test B flooded paddy test; conditions: Cyperus difformis, 360 h, Flood, 250 g ai/ha; visually evaluated after 13 to 15 d; read-out: Plant response rating, Sedge, Umbrella (0 to 100 scale where 0 is no effect and 100 is complete control)
Summary of the method: as §2

[21] = 125 g ai/ha, visual rating about 10 d after treatment
[22] = 31 g ai/ha, 0 is no effect, 100 is complete control

## O=C1NC[C@H](c2cc(Br)cc(Br)c2)[C@H]1C(=O)Nc1cccc(F)c1F [Compound 1366]
[1]; 31 g ai/ha, 0 to 100 scale where 0 is no effect and 100 is complete control, read-out: Kochia plant response rating
  pest or weed control at 31 g/ha: 0%
[1]; 125 g ai/ha, 0 to 100 scale (0 no effect, 100 complete control), read-out: Plant response rating, Kochia
  pest or weed control at 125 g/ha: 0%
[2]; 31 g ai/ha, 0 to 100 scale where 0 is no effect and 100 is complete control, read-out: Barnyardgrass plant response rating
  pest or weed control at 31 g/ha: 60%
[2]; 125 g ai/ha, 0 to 100 scale (0 no effect, 100 complete control), read-out: Plant response rating, Barnyardgrass
  pest or weed control at 125 g/ha: 70%
[3]; 31 g ai/ha, 0 to 100 scale where 0 is no effect and 100 is complete control, read-out: Foxtail, Giant plant response rating
  pest or weed control at 31 g/ha: 50%
[3]; 125 g ai/ha, 0 to 100 scale (0 no effect, 100 complete control), read-out: Plant response rating, Foxtail, Giant
  pest or weed control at 125 g/ha: 90%
[4]; 31 g ai/ha, 0 to 100 scale where 0 is no effect and 100 is complete control, read-out: Pigweed plant response rating
  pest or weed control at 31 g/ha: 0%
[4]; 125 g ai/ha, 0 to 100 scale (0 no effect, 100 complete control), read-out: Plant response rating, Pigweed
  pest or weed control at 125 g/ha: 0%
[5]; 31 g ai/ha, 0 to 100 scale where 0 is no effect and 100 is complete control, read-out: Ragweed plant response rating
  pest or weed control at 31 g/ha: 0%
[5]; 125 g ai/ha, 0 to 100 scale (0 no effect, 100 complete control), read-out: Plant response rating, Ragweed
  pest or weed control at 125 g/ha: 0%
[6]; 31 g ai/ha, 0 to 100 scale where 0 is no effect and 100 is complete control, read-out: Ryegrass, Italian plant response rating
  pest or weed control at 31 g/ha: 0%
[6]; 125 g ai/ha, 0 to 100 scale (0 no effect, 100 complete control), read-out: Plant response rating, Ryegrass, Italian
  pest or weed control at 125 g/ha: 10%
[7]; [21]
  pest or weed control at 125 g/ha: 70%
[7]; [22]
  pest or weed control at 31 g/ha: 0%
[8]; [21]
  pest or weed control at 125 g/ha: 0%
[8]; [22]
  pest or weed control at 31 g/ha: 0%
[9]; 125 g ai/ha, visual rating about 10 d after treatment, read-out: Barnyardgrass plant response rating (0 to 100 scale, 0 no effect, 100 complete control)
  pest or weed control at 125 g/ha: 70%
[9]; 31 g ai/ha, 0 is no effect, 100 is complete control, read-out: Barnyardgrass plant response rating (0 to 100 scale)
  pest or weed control at 31 g/ha: 20%
[10]; [21]
  pest or weed control at 125 g/ha: 0%
[10]; [22]
  pest or weed control at 31 g/ha: 0%
[11]; [21]
  plant injury at 125 g/ha: 0%
[11]; [22]
  plant injury at 31 g/ha: 0%
[12]; [21]
  pest or weed control at 125 g/ha: 70%
[12]; [22]
  pest or weed control at 31 g/ha: 30%
[13]; [21]
  pest or weed control at 125 g/ha: 80%
[13]; [22]
  pest or weed control at 31 g/ha: 0%
[14]; [21]
  pest or weed control at 125 g/ha: 0%
[14]; [22]
  pest or weed control at 31 g/ha: 0%
[15]; [21]
  pest or weed control at 125 g/ha: 0%
[15]; [22]
  pest or weed control at 31 g/ha: 0%
[16]; [21]
  plant injury at 125 g/ha: 0%
[16]; [22]
  plant injury at 31 g/ha: 0%
[17]
  pest or weed control at 250 g/ha: 40%
[18]
  pest or weed control at 250 g/ha: 80%
[19]
  pest or weed control at 250 g/ha: 0%
[20]
  pest or weed control at 250 g/ha: 0%
